Measurements as given in patent publication US10022341B2, “Methods of preventing neurodegeneration of association cortex in a mammal” (YALE UNIVERSITY, priority 2014, dated 2018).
Entries after “also recorded” stand apart in the source; their conditions may differ.

How the values were obtained:
[1] = test system: aged monkeys (18-28 yrs); test: Working memory performance after chronic daily treatment; type: in vivo, monkey
[2] = test system: p-S214 tau in aged monkey dlPFC; test: Immunoblot of p-S214 tau in dlPFC after chronic daily treatment; type: in vivo; settings: 0.001-0.1 mg/kg daily for 6 mos, n=1, pilot study
Description: FIG. 18 is a set of immunoblots and a graph illustrating the finding that chronic daily treatment with the α2A-AR agonist, guanfacine, reduces abnormal phosphorylation of tau in the aged monkey dlPFC.
Heat-stable tau was prepared as detailed in Bussière et al., 2003, J Comp Neurol. 463:281. Small blocks of dlPFC were surgically removed and flash-frozen before perfusion of subjects. A piece was placed into ice-cold homogenization buffer (10 mM Tris pH 7.4, 140 mM NaCl, 2 mM EGTA, plus protease and phosphatase inhibitors; 400 μL per 100 mg tissue) and homogenized by sonication. A small fraction was reserved for protein quantification for gel loading. NaCl was added to 250 mM, followed by addition of β-mercaptoethanol (14.3 M, Sigma) to 5% total volume. Samples were vortexed and heated to 100° C. for 15 min, vortexed, then cooled on ice for 30 min. Lysates were cleared by centrifugation at 16,100×g for 10 min at 4° C., and the supernatant used for immunoblotting. Band intensities were normalized by total heat-stable protein, quantified by measurement of major band intensities on a Coomassie stained gel (FIG. 5C).
All samples were run on Invitrogen Novex 4-12% Tris-glycine gels using the Biorad Western blotting system. […] Bands were quantified using Odyssey Software, and statistics performed by Student's T-test, unless stated otherwise.

[3] = test system: phospho-COXIV-1 (p-S58) in aged monkey dlPFC; test: Immunoblot of phospho-COXIV-1 (p-S58) in dlPFC after chronic daily treatment; type: in vivo; settings: 0.001-0.1 mg/kg daily for 6 mos, n=1, pilot study
Description: FIG. 19 is a set of immunoblots and a bar graph illustrating that chronic daily treatment with the α2A-AR agonist, guanfacine, reduces abnormal phosphorylation of COXIV in the aged monkey dlPFC.
All samples were run on Invitrogen Novex 4-12% Tris-glycine gels using the Biorad Western blotting system. Lanes were transferred onto […] Nitrocellulose (Biorad) and incubated overnight in primary antibodies: anti PDE4A (Abcam, ab14607; 1:1000), anti-GAPDH (Advanced Immunochemical, mAb 6C5; 1:5000), anti-PDE4B (Pearson et al., 1985, Proc. Natl. Acad. Sci. USA 82:4531), anti-β-tubulin (T2200, Sigma; 1:5000), anti-PSD95 (EMD Millipore, mAb N68; 1:5000), anti-pSer214 (EMD Millipore, AB6972; 1:1000) for all experiments, except the primary culture experiment, where Abcam 4846 was used due to discontinuation of the previous antibody, anti-pThr231 (Pierce, OPA1-031556; 1:1000), anti-tau (clone 5E2, EMD Millipore, 05-348; 1:500-1:1000). Primary antibodies were labeled using the appropriate Licor IRDye 680 or 800 secondary antibody, and visualized using a Licor Odyssey Infra Red Scanner. Bands were quantified using Odyssey Software, and statistics performed by Student's T-test, unless stated otherwise.

[4] = humans; cited from earlier work
[5] = test system: pS214-tau in mouse primary cortical neurons; test: pSer214 phosphorylation assay in cultured neurons (immunoblot); type: cell-based
Description: FIG. 15 is a series of immunoblots illustrating the effect of PDE4 inhibition on phosphorylation of tau at Serine 214. Mouse primary cortical neurons between 7-11 days in vitro were preincubated with 10 μM rolipram or vehicle for 10 min, before being subjected to treatment with varying nM concentrations of forskolin (as indicated). Following this treatment, cells were lysed in 1% SDS with protease and phosphatase inhibitors (Complete Mini, Roche and PhosStop, Roche), and heated to 70° C. to prevent further phosphatase activity. Samples were quantified by BCA assay, and analyzed by imunoblotting. Blots were labeled for pSer214-tau (Abcam, 4846), total tau (EMD Millipore, clone 5E2) and GAPDH (Advanced Immunochemical, mAb 6C5). Bands were quantified using Image J, and total tau signals were normalized by GAPDH. p-Tau signals were then normalized to total tau signals.
Primary cortical neurons were prepared from P1 C57Bl/6 mice. One day prior to neuron production, plates were coated overnight with Poly-D-Lysine solution (Sigma). […]
Assays were performed on primary cortical neurons between 7-11 days in vitro. […] Samples were quantified by BCA assay, and analyzed by immunoblotting. In this instance, band intensity was quantified using ImageJ, and significance assessed by 2 way ANOVA using Graph Pad Prism software.

SMILES	working memory / cognitive performance compared to baseline ([1]; 0.001 or 0.01 mg/kg daily for 6 months, n=4 or 5)	working memory / cognitive performance compared to baseline ([1]; highest dose 0.1 mg/kg daily for 6 months, 0.1 mg/kg)	p-S214 tau expression in dlPFC compared to chronic vehicle [2]	phospho-COXIV-1 (p-S58) expression in dlPFC compared to chronic vehicle [3]	safety of long-term treatment [4]	forskolin-induced increase in pS214-tau ([5]; 10 μM with forskolin, F(1,60)=8.882, p=0.0042)	pS214-tau level ([5]; PDE4 inhibition, FIG. 3G)
NC(N)=NC(=O)Cc1c(Cl)cccc1Cl [guanfacine, N-(diaminomethylidene)-2-(2,6-dichlorophenyl)acetamide]	enhances cognitive performance; also recorded: significantly improved working memory performance	produced improvement in some monkeys but not in others; also recorded: highly variable and thus not significant	reduces the expression of p-tau; also recorded: dose-related reduction in phosphorylated tau at the pS214 site; also recorded: dose-related reduction in p-S214 expression	reduces the expression of p-tau and phospho-COXIV-1; also recorded: decreasing phospho-COXIV-1; also recorded: decreased phospho-COXIV-1 expression	proven safe for long-term treatment	–	–
COc1ccc(C2CNC(=O)C2)cc1OC1CCCC1 (stereo not shown) [rolipram]	–	–	–	–	–	significantly increased	increased pS214-tau
